Experimental data taken from PubChem BioAssay (NCI).
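Grown in 96-well plates, cells were treated for 48 hours with each compound at five concentrations. Insufficient inhibition: endpoint recorded as highest concentration tested. GI50 = concentration required for 50% inhibition of growth. TGI: concentration producing complete growth inhibition.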

Assays:
Assay in all cases: DTP human tumour cell line panel, 48 h
SK-MEL-2 melanoma = system: SK-MEL-2 melanoma
OVCAR-8 ovarian = system: OVCAR-8 ovarian
SK-MEL-28 melanoma = system: SK-MEL-28 melanoma
A549 NSCLC = system: A549 NSCLC
MOLT-4 leukemia = system: MOLT-4 leukemia
UACC-62 melanoma = system: UACC-62 melanoma
SNB-19 CNS = system: SNB-19 CNS
NCI-H522 lung = system: NCI-H522 lung
RXF 393 renal = system: RXF 393 renal
HCC-2998 colon = system: HCC-2998 colon

| SMILES | TGI (SK-MEL-2 melanoma) | TGI (OVCAR-8 ovarian) | TGI (SK-MEL-28 melanoma) | TGI (A549 NSCLC) | TGI (MOLT-4 leukemia) | TGI (UACC-62 melanoma) | TGI (SNB-19 CNS) | TGI (NCI-H522 lung) | TGI (RXF 393 renal) | TGI (HCC-2998 colon) | GI50 (SK-MEL-2 melanoma) | GI50 (OVCAR-8 ovarian) | GI50 (HCC-2998 colon) | GI50 (A549 NSCLC) | GI50 (MOLT-4 leukemia) | GI50 (UACC-62 melanoma) | GI50 (SNB-19 CNS) | GI50 (NCI-H522 lung) | GI50 (RXF 393 renal) |
| --- | --- | --- | --- | --- | --- | --- | --- | --- | --- | --- | --- | --- | --- | --- | --- | --- | --- | --- | --- |
| Cc1cc(N(CCCCl)CCCCl)ccc1C=Nc1cccc(Cl)c1 | 36.5 µM | 24.3 µM | 41.5 µM | 24.7 µM | 21.2 µM | 7.28 µM | 34.6 µM | 43.7 µM | 35.5 µM |  |  |  |  |  |  |  |  |  |  |
| C[n+]1ccc(-c2cc[n+](C)cc2)cc1 | 13.1 µM | > 100 µM | > 100 µM | > 95 µM | > 100 µM |  | > 100 µM | > 34.2 µM | 3.93 µM | 97.8 µM |  |  |  |  |  |  |  |  |  |
| c1ccc2sc(SCN(C3CCCCC3)C3CCCCC3)nc2c1 | > 100 µM | > 100 µM | > 100 µM | > 100 µM | > 100 µM | > 100 µM | > 100 µM | > 100 µM | > 100 µM | > 100 µM |  |  |  |  |  |  |  |  |  |
| Nc1ccc(Nc2c3ccccc3nc3ccccc23)cc1 | > 10 µM | > 10 µM | > 10 µM | > 10 µM | > 10 µM | 5.22 µM | > 10 µM | > 10 µM | > 10 µM | > 10 µM |  |  |  |  |  |  |  |  |  |
| Nc1nnc(N)n1NC(=O)C(=O)Nc1ccc([N+](=O)[O-])cc1 | > 100 µM | > 100 µM | > 100 µM | > 100 µM | > 100 µM | > 100 µM | > 100 µM | > 100 µM | > 100 µM | > 100 µM |  |  |  |  |  |  |  |  |  |
| COc1cc2c(cc1Oc1ccc(OC)c3c1CC1c4c(cc(OC)c(OC)c4-3)CCN1C)CC1c3c(cc(OC)c(OC)c3-2)CCN1C (stereo not given) | 3.79 µM | 16.3 µM | 3.44 µM | 25.9 µM | 4.41 µM | 3.65 µM | 14.5 µM | 4.66 µM | 3.81 µM | 5.89 µM |  |  |  |  |  |  |  |  |  |
| Fc1ccc(-c2nnc3sc(COc4ccccc4Cl)nn23)cc1Cl | > 100 µM | > 100 µM |  | > 100 µM | > 100 µM | > 100 µM | > 100 µM | 36.3 µM | 69.2 µM | > 100 µM | 51.8 µM | 37.8 µM | > 100 µM | 41.1 µM | 24.5 µM | 38.4 µM | 39.9 µM | 18 µM | 38.1 µM |
| O=C1c2ccccc2C(=O)c2c1ccc(C(=O)O)c2-c1ccc2ccccc2c1 | 48.5 µM | > 100 µM | > 100 µM | > 100 µM | 53 µM | 37.8 µM | > 100 µM | 59.3 µM |  | > 100 µM |  |  |  |  |  |  |  |  |  |
| CCCCCCCCCCCCCCCCOCC(COP(=O)([O-])OCC[n+]1ccc(N(C)C)cc1)OCC (stereo not given) | 27 µM | 38.2 µM | 32.4 µM | 30.4 µM | 18.4 µM | 29 µM | 14.4 µM | 29.2 µM | 31.7 µM | 27.6 µM |  |  |  |  |  |  |  |  |  |
| COc1ccc(CC2c3cc(OC)c(OC)c(OC)c3CC[N+]2(C)C)cc1Oc1ccc(CC2c3cc4c(c(OC)c3CCN2C)OCO4)cc1 (stereo not given) | > 100 µM | > 100 µM | > 100 µM | > 100 µM | > 100 µM | > 100 µM | > 100 µM | > 100 µM | > 100 µM | > 100 µM |  |  |  |  |  |  |  |  |  |
| Cc1cc(=O)oc2c1cc(OCC(=O)OCCN1CCCCC1)c1occ(C)c12 | > 100 µM | > 100 µM | > 100 µM | > 100 µM | > 100 µM | > 100 µM | > 100 µM |  | > 100 µM | > 100 µM |  |  |  |  |  |  |  |  |  |
| COc1cc(O)c2c(c1)C(=O)c1cc(C)cc(O)c1C2=O | > 100 µM | > 100 µM | > 100 µM | > 100 µM | > 100 µM | > 100 µM | > 100 µM | > 100 µM |  | > 100 µM |  |  |  |  |  |  |  |  |  |
| COc1cc(C)c2c(=O)c3c(oc2c1)C(=O)c1c(O)c(OC)cc(O)c1C3=O | 1.88 µM | 0.551 µM | 7.44 µM | 7.84 µM | 4.6 µM | 4.61 µM | 7.89 µM | 9.17 µM | 2.71 µM | 25 µM |  |  |  |  |  |  |  |  |  |
| O=c1cc(O)c2ccccc2o1 |  | > 100 µM | > 100 µM | > 100 µM | > 100 µM | > 100 µM | > 100 µM | > 100 µM | > 100 µM | > 100 µM |  |  |  |  |  |  |  |  |  |
| CC(C)=CCC[C@](C)(O[C@@H]1O[C@H](CO)[C@@H](O)[C@H](O)[C@H]1O)[C@H]1CC[C@]2(C)[C@@H]1[C@H](O)C[C@@H]1[C@@]3(C)CC[C@H](O)C(C)(C)[C@@H]3[C@@H](O[C@@H]3O[C@H](CO)[C@@H](O)[C@H](O)[C@H]3O)C[C@]12C | > 100 µM | > 100 µM | > 100 µM | > 100 µM |  | > 100 µM | > 100 µM | > 100 µM | > 100 µM | > 100 µM |  |  |  |  |  |  |  |  |  |
| Cn1c(Sc2ccc(-c3cccnc3)n2C)ccc1-c1cccnc1 | 30.1 µM | 41.2 µM | 26.9 µM | 80.9 µM | 7.78 µM | 29.7 µM | 42.3 µM | 23.9 µM | 36.3 µM | 34.7 µM |  |  |  |  |  |  |  |  |  |
| COc1c(Cl)cc(S(=O)O)cc1Cl | > 100 µM |  | > 100 µM |  | > 100 µM | > 100 µM | > 100 µM | > 100 µM | > 100 µM | > 100 µM |  |  |  |  |  |  |  |  |  |
| NC(=O)Nc1cc(O)ccc1N=Nc1ccc(S(=O)(=O)Nc2ccccn2)cc1 | > 100 µM | > 100 µM | > 100 µM | > 100 µM | > 100 µM | > 100 µM | > 100 µM | > 100 µM |  | > 100 µM |  |  |  |  |  |  |  |  |  |
| CCOC(=O)NC | > 100 µM |  | > 100 µM | > 100 µM |  | > 100 µM | > 100 µM |  | > 100 µM | > 100 µM |  |  |  |  |  |  |  |  |  |
